According to patent US20100297256A1, “METHODS AND COMPOSITIONS FOR INHIBITING INTEGRINS USING TELLURIUM-CONTAINING COMPOUNDS” (priority 2007, published 2010):

Experiments:
[1] = test system: West Nile Virus (WNV); experiment: WNV yield assay; type: cell-based; settings: Vero cells, 5 μg/ml 1 hour before inoculation
Procedure: Vero cells were seeded as described above in 96-well plates. Cells were treated with AS101 and infected with WNV at MOI of 5 PFU/cell. The cells were washed six times with PBS, and fresh medium was added. The virus titer in harvested culture supernatants was determined by a microtitration assay as follows [Colley et al., in Colgan et al., Current Protocols in Immunology, John Wiley & Sons, New York, N.Y., 2003]: 10-fold serial dilutions of supernatants were used to infect Vero cells in 96-well plates. […] Viral titers (expressed as log 10 of TCID50/ml) were calculated according to the Spearman-Karber method [Hierholzer and Killington, in Mahy and Kangro, Virology Methods Manual, Academic Press, San Diego, Calif., 1996].

[2] = test system: West Nile Virus (WNV); experiment: Cell-free virus assay; type: cell-based; settings: Vero cells, 5 and 10 μg/ml 1 hour before infection, 1 hour after adsorption
Procedure: Cells were plated 20 hours before virus infection in 6-well plates at a density of 2×10^5 cells/plate, and treated with AS101 (1-10 μg/ml) for 1 hour or for 5-10 minutes before WNV infection. The cells were infected at MOI=5 PFU/cell and incubated for 1 hour at 37° C., 5% CO2. Supernatants were collected immediately following the incubation, and the concentration of the virus which remained cell-free in the culture supernatant was measured by viral plaque assay, as described above.

[3] = biological target: T1, αVβ3 integrin (Homo sapiens, UniProt P05106+P06756); experiment: Integrin-WNV attachment assay; type: binding; settings: purified integrin 75 ng/well
T1 construct: purchased Chemicon
T1 sequence (P06756 31-889 limits assumed): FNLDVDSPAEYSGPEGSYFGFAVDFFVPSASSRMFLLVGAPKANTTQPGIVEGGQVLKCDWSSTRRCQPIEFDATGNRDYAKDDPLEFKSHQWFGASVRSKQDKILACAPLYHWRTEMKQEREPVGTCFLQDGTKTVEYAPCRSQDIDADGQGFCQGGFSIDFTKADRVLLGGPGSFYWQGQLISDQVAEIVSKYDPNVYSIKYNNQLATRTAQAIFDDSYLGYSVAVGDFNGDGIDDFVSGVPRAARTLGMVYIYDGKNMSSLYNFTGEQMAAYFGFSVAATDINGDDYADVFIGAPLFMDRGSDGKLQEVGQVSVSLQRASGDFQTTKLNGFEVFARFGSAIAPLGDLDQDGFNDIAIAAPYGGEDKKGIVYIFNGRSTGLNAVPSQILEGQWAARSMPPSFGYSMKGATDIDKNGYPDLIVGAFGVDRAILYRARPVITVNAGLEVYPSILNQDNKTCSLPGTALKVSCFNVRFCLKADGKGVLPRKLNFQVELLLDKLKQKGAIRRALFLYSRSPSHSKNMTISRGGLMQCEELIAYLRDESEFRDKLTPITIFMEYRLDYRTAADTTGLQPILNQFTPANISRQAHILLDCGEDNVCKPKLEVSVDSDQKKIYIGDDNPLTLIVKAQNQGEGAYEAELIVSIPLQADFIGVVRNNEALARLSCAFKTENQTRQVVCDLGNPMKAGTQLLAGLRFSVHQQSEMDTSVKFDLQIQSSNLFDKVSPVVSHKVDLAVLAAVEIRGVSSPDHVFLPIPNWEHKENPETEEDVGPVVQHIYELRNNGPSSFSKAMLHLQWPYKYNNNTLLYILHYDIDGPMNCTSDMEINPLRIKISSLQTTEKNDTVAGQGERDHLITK
T1 sequence (P06756 891-1048 limits assumed): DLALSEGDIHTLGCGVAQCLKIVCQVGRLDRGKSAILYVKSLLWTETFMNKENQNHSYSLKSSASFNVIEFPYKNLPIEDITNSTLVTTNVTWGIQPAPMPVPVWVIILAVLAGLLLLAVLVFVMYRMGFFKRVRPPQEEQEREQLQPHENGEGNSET
T1 sequence (P05106 27-788): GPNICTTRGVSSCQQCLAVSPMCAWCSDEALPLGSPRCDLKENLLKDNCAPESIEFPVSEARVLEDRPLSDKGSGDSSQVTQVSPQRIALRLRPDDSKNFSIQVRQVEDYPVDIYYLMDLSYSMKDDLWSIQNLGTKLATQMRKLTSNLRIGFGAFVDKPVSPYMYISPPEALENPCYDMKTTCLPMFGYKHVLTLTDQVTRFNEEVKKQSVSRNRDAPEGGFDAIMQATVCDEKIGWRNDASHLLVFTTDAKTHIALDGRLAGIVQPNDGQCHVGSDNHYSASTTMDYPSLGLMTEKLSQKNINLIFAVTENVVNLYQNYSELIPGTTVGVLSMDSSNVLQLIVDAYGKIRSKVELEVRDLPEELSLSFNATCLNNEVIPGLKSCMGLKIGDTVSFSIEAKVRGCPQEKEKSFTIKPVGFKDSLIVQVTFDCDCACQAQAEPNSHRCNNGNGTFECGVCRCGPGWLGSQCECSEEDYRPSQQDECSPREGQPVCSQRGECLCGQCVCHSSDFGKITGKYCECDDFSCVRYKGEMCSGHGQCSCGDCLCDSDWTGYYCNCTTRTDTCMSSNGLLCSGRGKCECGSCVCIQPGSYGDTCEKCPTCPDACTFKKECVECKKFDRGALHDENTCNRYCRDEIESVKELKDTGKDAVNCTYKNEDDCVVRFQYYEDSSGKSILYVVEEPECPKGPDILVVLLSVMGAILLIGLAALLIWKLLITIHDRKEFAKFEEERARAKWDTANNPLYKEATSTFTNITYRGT
Procedure: A solid-phase binding assay was performed according to a method previously described by Sharma et al [Virology, 239:150, 1997]. WNV was diluted in 50 mM carbonate-bicarbonate buffer, pH 9.6, to a concentration of 10^6 PFU/ml, and 100 μl aliquots were added to the wells of 96-well Nunc-Maxisorp ELISA plates. The plates were incubated overnight at 4° C., washed three times with washing buffer (20 mM Tris-HCL [pH 7.5], 150 mM NaCl), and then blocked for 2 hours at room temperature with […] of blocking buffer containing 20 mM Tris-HCL, pH 7.5, 150 mM NaCl, 5% Bovine serum albumin (BSA). The wells were then washed again, and purified αVβ3 integrin (75 ng/well), diluted in binding buffer (20 mM Tris-HCL, pH 7.5, 150 mM NaCl, 5% BSA, 2 mM CaCl2, 1 mM MgCl2) containing various concentrations of AS101, was added to the wells. After 2 hours of incubation at 37° C., the wells were washed three times with washing buffer. Bound integrin was detected with mouse monoclonal anti-human αVβ3 integrin antibody (Millipore [Chemicon]) diluted 1:1000 in 100 μl binding buffer. Incubation continued for 1 hour at 37 C, and then the wells were washed again. […] Colour development was stopped by the addition of 1 N H2SO4, and plates were read in a spectrophotometer at 492 nm.

[4] = test system: U937 cells; experiment: Fluorescence-based flow cytometry analysis of cell death; set-up: species or system human
Text: Fluorescence-based flow cytometry was used to measure the effect of tellurium-containing compounds on chemotherapy-induced cell death. Accumulation of cells in the sub-G1 fraction, increased proportion of annexin V-positive and propidium iodide-positive cells and increased caspase activity were each used as indicators of increased cell death, using standard procedures.

[5] = test system: Akt; experiment: Western blot analysis of Akt; type: cell-based, human
Procedure: Phosphorylation of Akt was determined by Western blot analysis.

[6] = test system: Bcl2; experiment: Western blot analysis of Bcl2; type: cell-based, human; settings: AS101 added to ARA-C
Text: The expression of the survival factor Bcl2 was examined via Western blot analysis in U937 cells treated with the chemotherapeutic agent ARA-C.

[7] = U937 on BSA, AS101 combined with ARA-C
[8] = U937 on fibronectin, AS101 combined with ARA-C
[9] = U937 on fibronectin, agent alone

Cl[TeH]1(Cl)(Cl)OCCO1 [AS101, ammonium trichloro(dioxyethylene-O,O′)tellurate]
decrease in virus yield ([1]; 24 hours post-infection): 1 log | decrease in virus yield ([1]; 36 hours post-infection): 2 log | WNV infectious units in culture supernatant relative to untreated cells [2]: approximately twice | attachment of αVβ3 integrin to immobilized WNV [3]: directly inhibited the attachment of αVβ3 integrin to WNV in a dose dependent manner | caspase-3 activity, ARA-C and AS101 in combination vs ARA-C alone ([4]; U937 on BSA): the same degrees of caspase-3 activity | percentage of annexin V-positive and propidium iodide-positive cells [4, 7]: only slightly above the percentage obtained with ARA-C alone | percentage of cells in the sub-G1 fraction [4, 7]: did not provide significantly different results than ARA-C alone | percentage of annexin V-positive and propidium iodide-positive cells [4, 8]: increased the percentage of annexin V-positive and propidium iodide-positive cells considerably | percentage of cells in the sub-G1 fraction [4, 8]: over 80% | percentage of cells with high caspase-3 activity [4, 8]: high percentage of cells with increased caspase-3 activity | percentage of annexin V-positive and propidium iodide-positive cells [4, 9]: no effect alone | percentage of cells in the sub-G1 fraction [4, 9]: no effect alone | percentage of cells with high caspase-3 activity [4, 9]: little or no effect | total amounts of Akt ([5]; U937): remained unchanged | level of phosphorylated Akt (pAkt) ([5]; U937 on fibronectin, dose-dependent): reduced the level of phosphorylated Akt | expression of Bcl2 ([6]; U937 on BSA): no effect | expression of Bcl2 ([6]; U937 on fibronectin): did not decrease expression of Bcl2 in cells plated on fibronectin (FN) unless AS101 was added
